Laboratory results taken from US20260345596A1, “TREATMENT OF LOCALLY ADVANCED OR METASTATIC UROTHELIAL CARCINOMA WITH ERDAFINITIB” (priority 2023, published 2026).
Several values for one entry are separate records, joined by “and”; a condition that tells them apart may be missing. Identical values can stand only once. Marks after values point to notes of the source that are not given here.

Experiment: Study BLC3001 (NCT03390504, THOR) Cohort 1: safety, adverse events, laboratory abnormalities and exposure
[1] = adverse events leading to death
[2] = any grade, adverse events of interest
[3] = any grade, serious adverse events, any cause
[4] = grade 3-4 adverse events of interest
[5] = leading to treatment discontinuation

## COc1cc(OC)cc(N(CCNC(C)C)c2ccc3ncc(-c4cnn(C)c4)nc3c2)c1 [Erdafitinib, N-(3,5-dimethoxyphenyl)-N′-(1-methylethyl)-N-[3-(1-methyl-1H-pyrazol-4-yl)quinoxalin-6-yl]ethane-1,2-diamine]
Grade ≥3, treatment-related
  Aspartate aminotransferase increased: 2 (1.5) no. (%)
  Asthenia: 0 no. (%)
  Constipation: 0 no. (%)
  Decreased appetite: 3 (2.2) no. (%)
  Diarrhea: 4 (3.0) no. (%)
  Dry eye: 0 no. (%)
  Dry mouth: 0 no. (%)
  Dry skin: 2 (1.5) no. (%)
  Dysgeusia: 1 (0.7) no. (%)
  Fatigue: 0 no. (%)
  Hyperphosphatemia: 7 (5.2) no. (%)
  Nausea: 1 (0.7) no. (%)
  Neutropenia: 0 no. (%)
  Onycholysis: 8 (5.9) no. (%)
  Onychomadesis: 2 (1.5) no. (%)
  Palmar-plantar erythrodysesthesia syndrome: 13 (9.6) no. (%)
  Stomatitis: 11 (8.1) no. (%)
[1]
  Atypical pneumonia: 0 no. (%)
  Cardiorespiratory arrest: 1 (0.7) no. (%)
  Febrile bone marrow aplasia: 0 no. (%)
  Febrile neutropenia: 0 no. (%)
  Pneumonia necrotizing: 1 (0.7) no. (%)
  Renal failure: 1 (0.7) no. (%)
  Septic shock: 0 no. (%)
  Sudden death: 2 (1.5) no. (%)
Any cause
  Adverse events leading to treatment discontinuation: 19 (14.1%) no. (%) and 19 (14.1) no. (%)
Any grade
  Central serous retinopathy: 23 (17.0%) n (%) and 23 (17.0) n (%)
  Eye disorders (excluding central serous retinopathy): 57 (42.2) n (%)
  Nail disorders: 90 (66.7) n (%)
  Skin disorders: 74 (54.8) n (%)
[2]
  Central serous retinopathy: 23 (17.0) no. (%)
  Chorioretinopathy: 8 (5.9) no. (%)
  Detachment of macular retinal pigment epithelium: 1 (0.7) no. (%)
  Detachment of retinal pigment epithelium: 7 (5.2) no. (%)
  Eye disorders (excluding central serous retinopathy): 57 (42.2) no. (%)
  Macular detachment: 2 (1.5) no. (%)
  Nail disorders: 90 (66.7) no. (%)
  Retinopathy: 2 (1.5) no. (%)
  Skin disorders: 74 (54.8) no. (%)
  Subretinal fluid: 5 (3.7) no. (%)
[3]
  Hematuria: 5 (3.7) no. (%)
  Hyponatremia: 3 (2.2) no. (%)
  Urinary tract infection: 6 (4.4) no. (%)
Any grade, treatment-emergent
  Neutropenia: 0 no.
Any grade, treatment-related
  Alanine aminotransferase increased: 29 (21.5) no. (%)
  Alopecia: 32 (23.7) no. (%)
  Anemia: 16 (11.9) no. (%)
  Aspartate aminotransferase increased: 25 (18.5) no. (%)
  Asthenia: 11 (8.1) no. (%)
  Constipation: 12 (8.9) no. (%)
  Decreased appetite: 28 (20.7) no. (%)
  Diarrhea: 74 (54.8) no. (%)
  Dry eye: 22 (16.3) no. (%)
  Dry mouth: 52 (38.5) no. (%)
  Dry skin: 30 (22.2) no. (%)
  Dysgeusia: 34 (25.2) no. (%)
  Fatigue: 18 (13.3) no. (%)
  Hyperphosphatemia: 106 (78.5) no. (%)
  Nausea: 14 (10.4) no. (%)
  Neutropenia: 0 no. (%)
  Onycholysis: 31 (23.0) no. (%)
  Onychomadesis: 27 (20.0) no. (%)
  Palmar-plantar erythrodysesthesia syndrome: 41 (30.4) no. (%)
  Stomatitis: 62 (45.9) no. (%)
count
  Treatment-related deaths: 1
Grade 3-4
  Central serous retinopathy: 3 (2.2) n (%)
  Eye disorders (excluding central serous retinopathy): 3 (2.2) n (%)
  Nail disorders: 15 (11.1) n (%)
  Skin disorders: 16 (11.9) n (%)
[4]
  Central serous retinopathy: 2.2%
  Nail disorders: 11.1%
  Skin disorders: 11.9%
Grade ≥3, treatment-related
  Onycholysis: 5.9%
  Palmar-plantar erythrodysesthesia syndrome: 9.6%
  Stomatitis: 8.1%
In vivo
  Treatment-emergent adverse events that led to death: 4.4%
  Treatment-related serious adverse events: 13.3%
investigator-assessed
  Treatment-related adverse events that led to death: 0.7%
[5]
  Anemia: 0 no. (%)
  Any patient with one or more adverse events leading to treatment discontinuation: 19 (14.1) no. (%)
  Atypical pneumonia: 0 no. (%)
  COVID-19: 1 (0.7) no. (%)
  Cardiorespiratory arrest: 1 (0.7) no. (%)
  Detachment of retinal pigment epithelium: 1 (0.7) no. (%)
  Diarrhea: 0 no. (%)
  Dry skin: 1 (0.7) no. (%)
  Dysphagia: 1 (0.7) no. (%)
  Dyspnea: 0 no. (%)
  Edema peripheral: 0 no. (%)
  Extremity necrosis: 1 (0.7) no. (%)
  Febrile bone marrow aplasia: 0 no. (%)
  Febrile neutropenia: 0 no. (%)
  Fractured sacrum: 0 no. (%)
  Hematuria: 1 (0.7) no. (%)
  Hyponatremia: 0 no. (%)
  Hypotension: 1 (0.7) no. (%)
  Ileus: 0 no. (%)
  Keratitis: 1 (0.7) no. (%)
  Nail dystrophy: 1 (0.7) no. (%)
  Onycholysis: 2 (1.5) no. (%)
  Paronychia: 1 (0.7) no. (%)
  Peripheral sensory neuropathy: 0 no. (%)
  Pneumonia necrotizing: 1 (0.7) no. (%)
  Pneumonitis: 0 no. (%)
  Renal failure: 1 (0.7) no. (%)
  Sciatica: 0 no. (%)
  Septic shock: 0 no. (%)
  Sudden death: 2 (1.5) no. (%)
  Syncope: 0 no. (%)
  Urinary retention: 1 (0.7) no. (%)
  Vision blurred: 1 (0.7) no. (%)
  Vomiting: 0 no. (%)
Safety population
  Adverse events leading to dose interruption: 97 (71.9) no. (%)
  Adverse events leading to dose reduction: 93 (68.9) no. (%)
  Adverse events of any cause: 98.5%
  Any adverse events (treatment-emergent): 133 (98.5%) no. (%) and 133 (98.5) no. (%)
  COVID-19-related adverse events: 12 (8.9) no. (%)
  COVID-19-related serious adverse events: 1 (0.7) no. (%)
  Grade 3-4 serious adverse events: 52 (38.5) no. (%)
  Grade 3-4 treatment-related adverse events: 45.9%
  Related adverse events (≥1 treatment-related AE, any grade): 131 (97.0) no. (%)
  Related adverse events leading to death: 1 (0.7) no. (%)
  Related adverse events leading to dose interruption: 89 (65.9) no. (%)
  Related adverse events leading to dose reduction: 89 (65.9) no. (%)
  Related adverse events leading to treatment discontinuation: 11 (8.1%)^b no. (%) and 11 (8.1) no. (%)
  Related grade 3-4 adverse events: 62 (45.9) no. (%)
  Related grade 3-4 serious adverse events: 16 (11.9) no. (%)
  Related serious adverse events: 18 (13.3) no. (%)
treatment-emergent
  Adverse events leading to death: 6 (4.4%) no. (%) and 6 (4.4) no. (%)
  Grade 3-4 adverse events: 85 (63.0%) no. (%) and 85 (63.0) no. (%)
  Serious adverse events: 56 (41.5%) no. (%) and 56 (41.5) no. (%)
treatment-emergent, any grade
  Clinically important TEAEs: 125 (92.6%) n (%)
treatment-related AEs
  Eye disorders leading to discontinuation: ^bMost frequent treatment-related AEs leading to discontinuation of erdafitinib included eye disorders (3 patients) and skin and subcutaneous disorders (3 patients).
treatment-related, any grade
  Diarrhea: 74 (54.8) n (%)
  Dry mouth: 52 (38.5) n (%)
  Hyperphosphatemia: 106 (78.5) n (%)
  Onycholysis: 31 (23.0) n (%)
  PPE syndrome: 41 (30.4) n (%)
  Stomatitis: 62 (45.9) n (%)
treatment-related, grade 3-4
  Diarrhea: 4 (3.0) n (%)
  Dry mouth: 0 n (%)
  Hyperphosphatemia: 7 (5.2) n (%)
  Onycholysis: 8 (5.9) n (%)
  PPE syndrome: 13 (9.6) n (%)
  Stomatitis: 11 (8.1) n (%)
Versus chemotherapy
  Lowering of discontinuation due to treatment-related adverse events: about 5.3%
